What all share (assay type): functional
Assay [1] in a line: Effect on insulin release in rat pancreatic cells at 100 umol/L after 6 hrs by radioimmunoassay.
In assay [2] the test system is Adipocyte. Description: Effect on 2-deoxy-D-[1-3H]glucose transport in Sprague-Dawley rat adipocytes at 10 uM in absence of insulin by liquid scintillation counting.
The subject of assay [3] is Adipocyte. Description: Effect on 2-deoxy-D-[1-3H]glucose transport in Sprague-Dawley rat adipocytes at 100 uM in absence of insulin by liquid scintillation counting.
Assay [4] has as its system Adipocyte. The assay can be described thus: Effect on 2-deoxy-D-[1-3H]glucose transport in Sprague-Dawley rat adipocytes at 1 uM in absence of insulin by liquid scintillation counting.
The nature of assay [5]: Effect on insulin release in rat pancreatic cells at 10 umol/L after 6 hrs by radioimmunoassay.
The test system of assay [6] is Adipocyte. Description: Effect on 2-deoxy-D-[1-3H]glucose transport in Sprague-Dawley rat adipocytes at 1 uM in presence of insulin by liquid scintillation counting.
Assay [7] deals with Adipocyte. Description: Effect on 2-deoxy-D-[1-3H]glucose transport in Sprague-Dawley rat adipocytes at 10 uM in presence of insulin by liquid scintillation counting.
The subject of assay [8] is Adipocyte. Description: Effect on 2-deoxy-D-[1-3H]glucose transport in Sprague-Dawley rat adipocytes at 100 uM in presence of insulin by liquid scintillation counting.
A short description of assay [9]: Effect on insulin release in rat pancreatic cells at 1 umol/L after 6 hrs by radioimmunoassay.
Assay [10] concerns Adipocyte. Description: Increase in glucose absorption in Sprague-Dawley rat adipocytes at 100 uM by liquid scintillation counting relative to basal level.

SMILES strings stand for the structures.

As for `Cc1ccc(S(=O)(=O)NCCc2ccc(S(=O)(=O)NC(=O)NC3CCCCC3)cc2)cc1`, the Activity in assay [1] was 25.93 uIU/ml; with Adipocyte [2] it was 4174.59 disintegrations/minute; in the assay with Adipocyte [3], 4458.36 disintegrations/minute; with Adipocyte [4] it was 4281.3 disintegrations/minute; in [5], 22.7 uIU/ml; with Adipocyte [6], 5374.21 disintegrations/minute. Moreover, the Activity in the assay with Adipocyte [7] amounted to 5533.15 disintegrations/minute; in the assay with Adipocyte [8], 5297.11 disintegrations/minute; in assay [9], 22.45 uIU/ml.

Consider `COc1ccc(NC(=S)NS(=O)(=O)c2ccc(CCNS(=O)(=O)c3ccccc3)cc2)cc1`, for which the Activity is recorded as 23.42 uIU/ml in [1]; 4118.78 disintegrations/minute with Adipocyte [2]; 4366.76 disintegrations/minute in the assay on Adipocyte [3]; 4179.5 disintegrations/minute in the assay with Adipocyte [4]; 24.98 uIU/ml in assay [5]; 5708.43 disintegrations/minute with Adipocyte [6]. For the same compound, the values for the Activity (in the assay on Adipocyte [7]; with Adipocyte [8]; in [9]) were 7555.71 disintegrations/minute, 6987.19 disintegrations/minute and 22.86 uIU/ml, respectively.

In the case of `O=S(=O)(NCCc1ccc(S(=O)(=O)NC(=S)Nc2ccc(Cl)cc2)cc1)c1ccccc1`, the results for the Activity in assay [1], in assay [5] and in assay [9] were 26.06 uIU/ml, 32.1 uIU/ml and 28.94 uIU/ml, respectively.

Consider `COc1ccc(NC(=S)NS(=O)(=O)c2ccc(CCNS(=O)(=O)c3ccc(Cl)cc3)cc2)cc1`, for which the Activity in assay [1] was determined as 26.09 uIU/ml; in [5], 24.36 uIU/ml; in assay [9], 24.05 uIU/ml.

Consider `O=C(NC1CCCCC1)NS(=O)(=O)c1ccc(CCNS(=O)(=O)c2ccc(Cl)cc2)cc1`, for which the Activity in assay [1] turned out to be 55.03 uIU/ml; with Adipocyte [2], 5878.83 disintegrations/minute; in the assay on Adipocyte [3] it was 6632.7 disintegrations/minute; in the assay on Adipocyte [4] it was 4576.35 disintegrations/minute; in assay [5] it was 41.18 uIU/ml; with Adipocyte [6], 5217.31 disintegrations/minute. The Activity came out at 5933.89 disintegrations/minute in the assay on Adipocyte [7], 6521.12 disintegrations/minute with Adipocyte [8] and 33.95 uIU/ml in [9].

For the compound `Cc1ccc(S(=O)(=O)NCCc2ccc(S(=O)(=O)NC(=S)Nc3ccc(Cl)cc3)cc2)cc1`, the “fold change (FC)” value in the assay on Adipocyte [10] is 1.59. In addition, the Activity in assay [1] amounted to 22.25 uIU/ml; with Adipocyte [2] it was 6514.04 disintegrations/minute; in the assay on Adipocyte [3] it was 7061.15 disintegrations/minute; in the assay on Adipocyte [4], 5687.31 disintegrations/minute; in assay [5], 23.01 uIU/ml; with Adipocyte [6] it was 5115.18 disintegrations/minute. Also, the Activity in the assay with Adipocyte [7] was 5512.62 disintegrations/minute; in the assay with Adipocyte [8] it was 7832.17 disintegrations/minute; in [9], 23.89 uIU/ml.

Consider `O=C(NC1CCCCC1)NS(=O)(=O)c1ccc(CCNS(=O)(=O)c2ccccc2)cc1`, for which the results for the Activity in [1], in assay [5] and in assay [9] were 31.29 uIU/ml, 28.27 uIU/ml and 22.86 uIU/ml, respectively.

Regarding `COc1ccc(NC(=S)NS(=O)(=O)c2ccc(CCNS(=O)(=O)c3ccc(Br)cc3)cc2)cc1`, the Activity is given as 26.17 uIU/ml in assay [1]; 4026.52 disintegrations/minute in the assay with Adipocyte [2]; 4335.26 disintegrations/minute in the assay on Adipocyte [3]; 4125.36 disintegrations/minute in the assay on Adipocyte [4]; 24.67 uIU/ml in [5]; 5177.84 disintegrations/minute with Adipocyte [6]. For the same compound, the Activity with Adipocyte [7] stood at 5234.61 disintegrations/minute; in the assay with Adipocyte [8] it was 5069.25 disintegrations/minute; in [9], 22.25 uIU/ml.

On to `Cc1ccc(NC(=S)NS(=O)(=O)c2ccc(CCNS(=O)(=O)c3ccc(C)cc3)cc2)cc1`, for which the Activity in assay [1] turned out to be 20.87 uIU/ml; in the assay with Adipocyte [2] it was 4401.01 disintegrations/minute; in the assay on Adipocyte [3] it was 4513.06 disintegrations/minute; in the assay with Adipocyte [4], 4428.46 disintegrations/minute; in [5], 24.24 uIU/ml; in the assay on Adipocyte [6] it was 5627.67 disintegrations/minute. For the same compound, the Activity in the assay on Adipocyte [7] turned out to be 5115.32 disintegrations/minute; in the assay on Adipocyte [8], 5624.51 disintegrations/minute; in [9], 21.99 uIU/ml.

On to `O=C(NC1CCCCC1)NS(=O)(=O)c1ccc(CCNS(=O)(=O)c2ccc(Br)cc2)cc1`, for which the Activity in assay [1] came to 65.98 uIU/ml; with Adipocyte [2], 4861.54 disintegrations/minute; in the assay with Adipocyte [3], 6556.61 disintegrations/minute; in the assay on Adipocyte [4] it was 4421.72 disintegrations/minute; in [5], 45.01 uIU/ml; in the assay on Adipocyte [6], 5523.89 disintegrations/minute. Besides, the results for the Activity (with Adipocyte [7]; in the assay with Adipocyte [8]; in assay [9]) were 6002.46 disintegrations/minute, 7896.14 disintegrations/minute and 32.09 uIU/ml, respectively.

`Cc1ccc(NC(=S)NS(=O)(=O)c2ccc(CCNS(=O)(=O)c3ccccc3)cc2)cc1`: the Activity is reported as 24.97 uIU/ml in [1]; 4385.12 disintegrations/minute in the assay on Adipocyte [2]; 4663.52 disintegrations/minute in the assay with Adipocyte [3]; 4377.95 disintegrations/minute in the assay with Adipocyte [4]; 27.71 uIU/ml in [5]; 5319.5 disintegrations/minute in the assay with Adipocyte [6]. Besides, the Activity with Adipocyte [7] was determined as 5644.89 disintegrations/minute; in the assay with Adipocyte [8] it was 5761.23 disintegrations/minute; in assay [9], 27.99 uIU/ml.

As to `CC1CCC(NC(=O)NS(=O)(=O)c2ccc(CCNS(=O)(=O)c3ccccc3)cc2)CC1` (stereo unspecified), the Activity worked out at 52.23 uIU/ml in [1], 41.29 uIU/ml in [5] and 32.15 uIU/ml in assay [9].

In the case of `CC(=O)Nc1ccc(S(=O)(=O)NCCc2ccc(S(=O)(=O)NC(=O)NC3CCC(C)CC3)cc2)cc1C` (stereo unspecified), the Activity was 37.32 uIU/ml in assay [1]; 4573.8 disintegrations/minute with Adipocyte [2]; 5207.81 disintegrations/minute in the assay with Adipocyte [3]; 4302.19 disintegrations/minute in the assay on Adipocyte [4]; 27.67 uIU/ml in assay [5]; 6123.02 disintegrations/minute in the assay on Adipocyte [6]. In addition, the Activity with Adipocyte [7] is recorded as 6516.9 disintegrations/minute; with Adipocyte [8] it was 7244.87 disintegrations/minute; in assay [9] it was 23.57 uIU/ml.

As for `COc1ccc(NC(=S)NS(=O)(=O)c2ccc(CCNS(=O)(=O)c3ccc(C)cc3)cc2)cc1`, the Activity is given as 23.69 uIU/ml in assay [1]; 4381.35 disintegrations/minute in the assay with Adipocyte [2]; 4550.21 disintegrations/minute in the assay with Adipocyte [3]; 4425.16 disintegrations/minute in the assay with Adipocyte [4]; 23.5 uIU/ml in assay [5]; 5026.34 disintegrations/minute in the assay on Adipocyte [6]. In addition, the results for the Activity (with Adipocyte [7]; in the assay on Adipocyte [8]; in [9]) were 5377.15 disintegrations/minute, 5573.24 disintegrations/minute and 24.48 uIU/ml, respectively.

Consider `O=S(=O)(NCCc1ccc(S(=O)(=O)NC(=S)Nc2ccc(Cl)cc2)cc1)c1ccc(Cl)cc1`, for which the Activity in assay [1] came out at 26.07 uIU/ml; with Adipocyte [2] it was 4432.15 disintegrations/minute; in the assay on Adipocyte [3] it was 4763.58 disintegrations/minute; with Adipocyte [4] it was 4587.26 disintegrations/minute; in assay [5] it was 26.37 uIU/ml; in the assay on Adipocyte [6] it was 5179.3 disintegrations/minute. For the same compound, the Activity in the assay with Adipocyte [7] was 5436.58 disintegrations/minute; with Adipocyte [8], 5764.25 disintegrations/minute; in [9] it was 29.46 uIU/ml.

Take `COc1cc(S(=O)(=O)NCCc2ccc(S(=O)(=O)NC(=O)NC3CCC(C)CC3)cc2)ccc1NC(C)=O` (stereo unspecified): in the assay on Adipocyte [10], the “fold change (FC)” value is listed as 1.58. Also, the Activity in assay [1] came to 24.83 uIU/ml; in the assay on Adipocyte [2] it was 6547.93 disintegrations/minute; with Adipocyte [3], 7037.78 disintegrations/minute; in the assay with Adipocyte [4], 5294.78 disintegrations/minute; in assay [5], 24.47 uIU/ml; with Adipocyte [6], 5587.26 disintegrations/minute. Moreover, the Activity in the assay on Adipocyte [7] was 6341.17 disintegrations/minute; in the assay with Adipocyte [8] it was 7447.72 disintegrations/minute; in [9] it was 24.57 uIU/ml.

Regarding `CC(=O)Nc1ccc(S(=O)(=O)NCCc2ccc(S(=O)(=O)NC(=O)NC3CCC(C)CC3)cc2)cc1` (stereo unspecified), the Activity in [1] worked out at 28.52 uIU/ml; with Adipocyte [2], 5616.15 disintegrations/minute; in the assay with Adipocyte [3] it was 6736.82 disintegrations/minute; in the assay on Adipocyte [4], 4215.36 disintegrations/minute; in assay [5] it was 36.67 uIU/ml; with Adipocyte [6], 5087.78 disintegrations/minute. For the same compound, the Activity was 6200.35 disintegrations/minute in the assay with Adipocyte [7], 6812.33 disintegrations/minute in the assay on Adipocyte [8] and 30.18 uIU/ml in assay [9].

Source of the values: ChEMBL document CHEMBL1153286, “Synthesis and biological evaluation of sulfonylurea and thiourea derivatives substituted with benzenesulfonamide groups as potential hypoglycemic agents” (Bioorg Med Chem Lett, 2009).
